Each compound was assayed against T1, Recombinant HDAC9 isoform 4 (Homo sapiens, UniProt Q9UKV0) (assay: Histone Deacetylase 9 (HDAC9) inhibition assay, fluorogenic substrate). Settings: mean of a minimum of 2 experiments; 11 point 3x dilution series from 100 uM; Class IIa HDAC-specific fluorogenic substrate 4.5 uM; read-out: mean pIC50, inhibition of HDAC9 (converted).
T1 construct: purchased BPS Bioscience
Format: biochemical
Excerpt: Histone Deacetylase 9 (HDAC9) Inhibition Assay:
Novel histone deacetylase 9 (HDAC9) inhibitors were characterized in an in vitro biochemical functional assay. The assay measures the increased fluorescent signal due to deacetylation, by HDAC9, of a fluorogenic substrate. The commercial available substrate is Class IIa HDAC-specific and contains an acetylated lysine residue and would releases the fluorescent signal upon trypsin cleavage after deacetylation.
Specifically, test compounds diluted to various concentrations in 100% DMSO are first dispensed into 384-well assay plates. Recombinant HDAC9 isoform 4 (purchased from BPS Bioscience) in complete assay buffer (50 mM Tris-HCl, pH 8.0, 137 mM NaCl, 2.7 mM KCl, 1 mM MgCl2, 0.05% BSA & 0.005% Tween 20) were then added to each well (5 uL/well) using Multidrop Combi (Thermo Scientific), followed by 5 uL/well substrate (purchased from BPS Bioscience, 4.5 uM final). After 45 minutes incubation at room temperature, 10 uL 2× developer solution (assay buffer with 40 uM Trypsin and 20 uM Trichostatin A) was added. The plates were then incubated 1 hour at room temperature before reading in fluorescent intensity mode at 450 nm in an Envision (Perkin Elmer) plate reader. Percent Inhibition of HDAC9 activity by compounds in each test wells was calculated by normalizing to fluorescent signal in control wells containing DMSO only. The pIC50s value of test compounds were calculated from non-linear curve fitting, using ActivityBase5 data analysis tool (IDBS), from 11 point 3× dilution series starting from 100 uM final compound concentration.
For dose response experiments, normalized data were fit by ABASE/XC50 using the equation y=a+(b−a)/(1+(10^×/10^c)^d), where a is the minimum % activity, b is the maximum % activity, c is the pIC50, d is the Hill slope.
The pIC50s are averaged to determine a mean value, for a minimum of 2 experiments. […] For instance, the compounds of Examples 1, 38, 61 and 79 inhibited HDAC9 in the above method with a mean pIC50 of >6.

T1 sequence (Q9UKV0 1-1066 isoform Q9UKV0-5): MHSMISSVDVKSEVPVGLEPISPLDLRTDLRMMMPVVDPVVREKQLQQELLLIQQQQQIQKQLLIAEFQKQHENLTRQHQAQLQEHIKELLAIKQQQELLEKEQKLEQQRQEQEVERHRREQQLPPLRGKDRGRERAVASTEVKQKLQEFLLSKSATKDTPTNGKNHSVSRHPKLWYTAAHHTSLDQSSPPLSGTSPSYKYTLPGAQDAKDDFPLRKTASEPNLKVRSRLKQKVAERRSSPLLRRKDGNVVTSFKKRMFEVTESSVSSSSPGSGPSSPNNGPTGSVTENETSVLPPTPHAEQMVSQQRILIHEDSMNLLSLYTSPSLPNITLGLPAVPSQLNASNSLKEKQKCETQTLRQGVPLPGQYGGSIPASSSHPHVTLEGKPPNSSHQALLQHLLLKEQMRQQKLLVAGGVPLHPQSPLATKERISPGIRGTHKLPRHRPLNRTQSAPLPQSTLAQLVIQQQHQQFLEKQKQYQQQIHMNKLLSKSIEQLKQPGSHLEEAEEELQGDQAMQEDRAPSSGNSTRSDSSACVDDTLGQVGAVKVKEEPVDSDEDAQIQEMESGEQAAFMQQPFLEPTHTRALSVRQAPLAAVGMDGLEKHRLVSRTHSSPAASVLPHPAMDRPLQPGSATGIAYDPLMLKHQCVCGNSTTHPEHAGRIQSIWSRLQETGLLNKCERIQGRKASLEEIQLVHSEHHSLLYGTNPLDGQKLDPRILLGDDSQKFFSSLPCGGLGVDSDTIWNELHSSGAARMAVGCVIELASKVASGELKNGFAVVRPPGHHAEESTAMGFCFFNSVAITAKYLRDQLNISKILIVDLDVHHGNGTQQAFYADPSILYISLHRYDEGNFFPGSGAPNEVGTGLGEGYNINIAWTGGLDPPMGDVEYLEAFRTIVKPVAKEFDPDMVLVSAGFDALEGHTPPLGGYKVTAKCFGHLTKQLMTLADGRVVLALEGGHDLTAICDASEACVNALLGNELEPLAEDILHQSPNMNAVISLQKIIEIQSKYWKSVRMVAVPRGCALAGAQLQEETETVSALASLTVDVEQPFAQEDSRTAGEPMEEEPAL

IC50, < 1000 nM:
O=C(c1cccc(-c2noc(C(F)(F)F)n2)c1)N1CCCN(c2ccc(C(F)(F)F)cn2)CC1 [Example 1, (3-(5-(Trifluoromethyl)-1,2,4-oxadiazol-3-yl)phenyl)(4-(5-(trifluoromethyl)pyridin-2-yl)-1,4-diazepan-1-yl)methanone]
N#Cc1ccc(N2CCN(C(=O)c3cccc(-c4noc(C(F)(F)F)n4)c3)CC2)cc1 [Example 38, 4-(4-(3-(5-(Trifluoromethyl)-1,2,4-oxadiazol-3-yl)benzoyl)piperazin-1-yl)benzonitrile]
N#Cc1ccc(N2CCN(C(=O)c3cccc(-c4ccc(C(=O)C(F)(F)F)s4)c3)CC2)nc1 [Example 61, 6-(4-(3-(5-(2,2,2-Trifluoroacetyl)thiophen-2-yl)benzoyl)piperazin-1-yl)nicotinonitrile]
O=C(c1cccc(-c2noc(C(F)(F)F)n2)c1)N1CC(Cc2nc(-c3ccc(F)cc3)cs2)C1 [Example 79, (3-((4-(4-Fluorophenyl)thiazol-2-yl)methyl)azetidin-1-yl)(3-(5-(trifluoromethyl)-1,2,4-oxadiazol-3-yl)phenyl)methanone]
